Assay [1] addresses T1, Bromodomain-containing protein 4 [349-460] (Homo sapiens, UniProt O60885).
T1 construct: 349-460
Put plainly: In Vitro BRD4 (BD2) Enzymatic Activity Assay. The procedure:
In the present application, IC50 values of the compounds in inhibiting BRD4 (BD2) enzyme binding reaction were determined by homogeneous time resolved fluorescence (HTRF). A compound was serially diluted 5-fold with 100% DMSO starting from 1 mM (7 concentrations in total), and then 2 μL of the compound at each concentration was added to 18 μL of a reaction buffer (20 mM HEPES pH 7.5, 150 mM NaCl, 5 mM DTT, 0.005% Tween 20, and 100 μg/mL BSA) for dilution. After being mixed well, 2 μL of the compound at each concentration was added to 48 μL of the above reaction buffer for dilution, and mixed well (final concentration of the compound in DMSO: 0.1%). 2.5 μL of the resulting mixture was added to a 384-well plate (OptiPlate-384, purchased from PerkinElmer), then 5 μL of GST-BRD4 (BD2, 349-460 aa) (final concentration: 2 nM) was added, and the resulting mixture was centrifuged, and fully mixed. 2.5 μL of a peptide Biotin-AHA-SGRGK(Ac)GGK(Ac)GLGK(Ac)GGAK(Ac) RHRKV (final concentration: 200 nM) was then added to initiate the reaction (total reaction volume: 10 μL). […] After being incubated in the incubator for another 1 hour, the fluorescence values (excited at 320 nm, emitted light at 665 nm and 620 nm being detected, and the ratio of the two being the enzyme binding signal) were read on Envision (purchased from PerkinElmer).

Assay [2] has as its target T2, Bromodomain-containing protein 4 [44-168] (Human, UniProt O60885).
T2 construct: 44-168
Nature of the assay: In Vitro BRD4 (BD1) Enzymatic Activity Assay. The procedure:
In the present application, IC50 values of the compounds in inhibiting BRD4 (BD1) enzyme binding reaction were determined by homogeneous time resolved fluorescence (HTRF). A compounds was serially diluted 5-fold with 100% DMSO starting from 0.2 mM (7 concentrations in total), and then 2 μL of the compound at each concentration was added to 48 μL of a reaction buffer (20 mM HEPES pH 7.5, 150 mM NaCl, 5 mM DTT, 0.005% Tween 20, and 100 μg/mL BSA) for dilution, and mixed well. 2.5 μL of the resulting mixture was added to a 384-well plate (OptiPlate-384, purchased from PerkinElmer), then 5 μL of GST-BRD4 (BD1, 44-168 aa) (final concentration: 1 nM) was added, and the resulting mixture was centrifuged, and fully mixed. 2.5 μL of a short peptide Biotin-AHA-SGRGK(Ac)GGK(Ac)GLGK(Ac)GGAK(Ac) RHRKV (final concentration: 100 nM) was then added to initiate the reaction (total reaction volume: 10 μL). […] After being incubated in the incubator for another 1 hour, the fluorescence values (excited at 320 nm, emitted light at 665 nm and 620 nm being detected, and the ratio of the two being the enzyme binding signal) were read on Envision (purchased from PerkinElmer).

Consider two compounds from BindingDB's records for patent US12030880 (Chia Tai Tianqing Pharmaceutical Group, 2024).

As a reminder, the IC50 is the midpoint of a concentration-inhibition curve. Low values mean higher potency, high ones lower potency.

As to `CCNC(=O)c1cc2c(-c3cc(N=S(C)(C)=O)ccc3Oc3ccc(S(C)(=O)=O)cc3)cn(C)c(=O)c2[nH]1` [US12030880, Example 1], the half-inhibitory concentration (IC50) in assay [1] was found to be 0.51 nM; in assay [2], 14.7 nM.
The matching figures for `Cn1cc(-c2cc(N=S(C)(C)=O)ccc2Oc2ccc(C#N)cc2F)c2cc[nH]c2c1=O` [US12030880, Example 2]: 0.98 nM and 1.4 nM.
